# Data taken from patent publication US12528802B2, “Heterocyclic compound” (Takeda Pharmaceutical Company Limited, priority 2019, dated 2026).
# Target: T1, glucosylceramide synthase (Homo sapiens, UniProt Q16739)
# T1 construct: made in house; host or cells: Expi293F cells (transient expression, pcDNA3.3-TOPO vector); microsome fraction used as enzyme source
# T1 sequence (Q16739 1-394): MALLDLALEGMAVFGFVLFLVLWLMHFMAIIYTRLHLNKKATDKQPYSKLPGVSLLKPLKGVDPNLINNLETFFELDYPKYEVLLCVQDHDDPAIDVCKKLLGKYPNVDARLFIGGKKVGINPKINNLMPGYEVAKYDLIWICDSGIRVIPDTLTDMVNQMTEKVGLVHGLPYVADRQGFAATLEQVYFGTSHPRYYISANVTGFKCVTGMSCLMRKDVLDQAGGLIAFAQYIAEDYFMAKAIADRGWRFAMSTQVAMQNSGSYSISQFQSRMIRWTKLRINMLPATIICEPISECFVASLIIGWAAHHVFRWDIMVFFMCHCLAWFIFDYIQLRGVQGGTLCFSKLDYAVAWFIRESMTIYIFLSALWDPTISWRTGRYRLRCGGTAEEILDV
# Test: Glucosylceramide synthase (GCS) enzyme assay, microsome fraction, C8 glucosylceramide quantified by Rapidfire MS/MS
# Assay type: biochemical
# Details: test compound 10 μM; 1.7 μM UDP-glucose, 3 μM C8 ceramide; room temperature 60 min; read-out: GCS enzyme inhibitory rate at 10 μM (%) (% of control)
# Method in brief: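 Test compound, 10 μM final, was run against human GCS from transfected Expi293F microsome fractions, using substrate solution of 6 μM C8 ceramide (in DOPC liposomes) plus 3.4 μM UDP-glucose, pH 7.5 Tris buffer, 60 min, room temperature. Product C8 glucosylceramide measured by Rapidfire MS/MS against an internal standard, % inhibition referenced to no-enzyme and DMSO wells.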
row,Compound,inhibition at 10 µM [%]
1,"N#CC1(c2ccc(N3Cc4c(ccnc4-c4ccc(F)cc4OCC(F)(F)F)C3=O)cc2)CCOCC1 [Example 218, 4-(4-{4-[4-fluoro-2-(2,2,2-trifluoroethoxy)phenyl]-1-oxo-1,3-dihydro-2H-pyrrolo[3,4-c]pyridin-2-yl}phenyl)oxan-4-carbonitrile]",99
2,"O=C1c2ccnc(-c3ccc(F)cc3OCC(F)(F)F)c2CN1c1ccc(C2(O)CCOCC2)c(F)c1 [Example 219, 2-[3-fluoro-4-(4-hydroxyoxan-4-yl)phenyl]-4-[4-fluoro-2-(2,2,2-trifluoroethoxy)phenyl]-2,3-dihydro-1H-pyrrolo[3,4-c]pyridin-1-one]",98
3,"O=C1c2ccnc(-c3ccc(F)cc3OCC(F)(F)F)c2CN1c1ccc(C2(O)COC2)c(F)c1 [Example 220, 2-[3-fluoro-4-(3-hydroxyoxetan-3-yl)phenyl]-4-[4-fluoro-2-(2,2,2-trifluoroethoxy)phenyl]-2,3-dihydro-1H-pyrrolo[3,4-c]pyridin-1-one]",89
4,"CC(C)(C)[Si](C)(C)OC1(c2ccc(N3Cc4c(ccnc4-c4ccccc4OCC(F)(F)F)C3=O)cc2)CC1 [Example 221, 2-[4-(1-{[tert-butyl(dimethyl)silyl]oxy}cyclopropyl)phenyl]-4-[2-(2,2,2-trifluoroethoxy)phenyl]-2,3-dihydro-1H-pyrrolo[3,4-c]pyridin-1-one]",99
5,"CC(C)(C)[Si](C)(C)OC1(c2ccc(N3Cc4c(ccnc4-c4ccc(F)cc4OCC(F)(F)F)C3=O)cc2)CC1 [Example 224, 2-[4-(1-{[tert-butyl(dimethyl)silyl]oxy}-cyclopropyl)phenyl]-4-[4-fluoro-2-(2,2,2-trifluoroethoxy)phenyl]-2,3-dihydro-1H-pyrrolo[3,4-c]pyridin-1-one]",99

# Next, values leading:
row,inhibition at 10 µM [%],Compound
1,100,"O=C1c2ccnc(-c3ccccc3OCC(F)(F)F)c2CN1c1ccc(C2(O)CC2)cc1 [Example 222, 2-[4-(1-hydroxycyclopropyl)phenyl]-4-[2-(2,2,2-trifluoroethoxy)phenyl]-2,3-dihydro-1H-pyrrolo[3,4-c]pyridin-1-one]"
2,94,"O=C1c2ccnc(-c3ccc(F)cc3OCC(F)(F)F)c2CN1c1ccc(C2(O)CC2)cc1 [Example 225, 4-[4-fluoro-2-(2,2,2-trifluoroethoxy)phenyl]-2-[4-(l-hydroxycyclopropyl)phenyl]-2,3-dihydro-1H-pyrrolo[3,4-c]pyridin-1-one]"
3,96,"O=C1c2ccnc(-c3ccc(F)cc3OCC(F)(F)F)c2CN1c1ccc(C2(F)COC2)cc1 [Example 226, 2-[4-(3-fluorooxetan-3-yl)phenyl]-4-[4-fluoro-2-(2,2,2-trifluoroethoxy)phenyl]-2,3-dihydro-1H-pyrrolo[3,4-c]pyridin-1-one]"
4,100,"O=C1c2ccnc(-c3ccccc3OCC(F)(F)F)c2CN1c1ccc(C2(O)CC(OCc3ccccc3)C2)cc1 (stereo not drawn) [Example 227, (cis or trans)-2-{4-[3-(benzyloxy)-1-hydroxycyclobutyl]phenyl}-4-[2-(2,2,2-trifluoroethoxy)phenyl]-2,3-dihydro-1H-pyrrolo[3,4-c]pyridin-1-one]"
5,86,"O=C1c2ccnc(-c3ccccc3OCC(F)(F)F)c2CN1c1ccc(C2(O)CC(O)C2)cc1 (stereo not drawn) [Example 228, (cis or trans)-2-[4-(1,3-dihydroxycyclobutyl)phenyl]-4-[2-(2,2,2-trifluoroethoxy)phenyl]-2,3-dihydro-1H-pyrrolo[3,4-c]pyridin-1-one]"
6,99,"CC(C)(O)Cc1ccc(N2Cc3c(ccnc3-c3ccccc3OCC(F)(F)F)C2=O)cc1 [Example 229, 2-[4-(2-hydroxy-2-methylpropyl)phenyl]-4-[2-(2,2,2-trifluoroethoxy)phenyl]-2,3-dihydro-1H-pyrrolo[3,4-c]pyridin-1-one]"
7,73,"CN(C)C(=O)c1ccc(N2Cc3cnn(-c4ccccc4OCC(F)(F)F)c3C2)nc1 [Example 230, N,N-dimethyl-6-{1-[2-(2,2,2-trifluoroethoxy)phenyl]-4,6-dihydropyrrolo[3,4-c]pyrazol-5(1H)-yl}pyridine-3-carboxamide]"
